Experimental data published in US20030186967A1, “Acylresorcinol derivatives are selective vitronectin receptor inhibitors” (American Home Products Corporation, priority 1998, published 2003).

These compounds were tested against T1, Vitronectin receptor αVβ3 (Homo sapiens, UniProt P05106+P06756) (assay: Vitronectin Receptor αVβ3 Binding Assay). Conditions: read-out: VnR (IC50μM).
T1 construct: expressed in transfected cells; host or cells: 512P5 cells (plasma membrane preparation)
T1 sequence (P06756 31-889 limits assumed): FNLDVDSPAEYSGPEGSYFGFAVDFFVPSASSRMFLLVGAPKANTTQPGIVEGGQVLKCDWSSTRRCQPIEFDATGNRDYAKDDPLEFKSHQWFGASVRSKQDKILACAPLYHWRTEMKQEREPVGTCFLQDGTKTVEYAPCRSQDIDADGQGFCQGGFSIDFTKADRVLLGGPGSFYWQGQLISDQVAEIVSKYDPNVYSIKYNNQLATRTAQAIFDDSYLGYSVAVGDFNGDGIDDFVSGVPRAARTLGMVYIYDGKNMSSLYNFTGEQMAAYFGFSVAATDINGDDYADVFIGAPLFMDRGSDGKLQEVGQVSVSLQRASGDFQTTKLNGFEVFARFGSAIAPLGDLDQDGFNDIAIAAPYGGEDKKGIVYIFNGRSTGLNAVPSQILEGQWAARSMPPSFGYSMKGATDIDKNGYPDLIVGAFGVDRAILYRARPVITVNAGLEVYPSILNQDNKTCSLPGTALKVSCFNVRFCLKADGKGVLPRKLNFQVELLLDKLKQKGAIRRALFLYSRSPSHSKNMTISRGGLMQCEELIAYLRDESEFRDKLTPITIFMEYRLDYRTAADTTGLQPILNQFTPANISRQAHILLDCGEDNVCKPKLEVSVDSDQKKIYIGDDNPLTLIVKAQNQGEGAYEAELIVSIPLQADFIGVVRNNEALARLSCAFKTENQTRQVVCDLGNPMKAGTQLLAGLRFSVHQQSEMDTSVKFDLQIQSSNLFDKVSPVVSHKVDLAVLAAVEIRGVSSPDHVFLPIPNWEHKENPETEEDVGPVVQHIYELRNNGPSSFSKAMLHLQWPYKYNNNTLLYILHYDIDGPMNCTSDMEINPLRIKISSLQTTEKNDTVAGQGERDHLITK
T1 sequence (P06756 891-1048 partner limits assumed): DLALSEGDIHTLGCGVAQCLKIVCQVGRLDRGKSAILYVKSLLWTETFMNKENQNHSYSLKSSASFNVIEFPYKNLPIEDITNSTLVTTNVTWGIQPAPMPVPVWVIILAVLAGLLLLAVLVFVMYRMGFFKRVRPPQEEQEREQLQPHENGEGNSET
T1 sequence (P05106 27-788): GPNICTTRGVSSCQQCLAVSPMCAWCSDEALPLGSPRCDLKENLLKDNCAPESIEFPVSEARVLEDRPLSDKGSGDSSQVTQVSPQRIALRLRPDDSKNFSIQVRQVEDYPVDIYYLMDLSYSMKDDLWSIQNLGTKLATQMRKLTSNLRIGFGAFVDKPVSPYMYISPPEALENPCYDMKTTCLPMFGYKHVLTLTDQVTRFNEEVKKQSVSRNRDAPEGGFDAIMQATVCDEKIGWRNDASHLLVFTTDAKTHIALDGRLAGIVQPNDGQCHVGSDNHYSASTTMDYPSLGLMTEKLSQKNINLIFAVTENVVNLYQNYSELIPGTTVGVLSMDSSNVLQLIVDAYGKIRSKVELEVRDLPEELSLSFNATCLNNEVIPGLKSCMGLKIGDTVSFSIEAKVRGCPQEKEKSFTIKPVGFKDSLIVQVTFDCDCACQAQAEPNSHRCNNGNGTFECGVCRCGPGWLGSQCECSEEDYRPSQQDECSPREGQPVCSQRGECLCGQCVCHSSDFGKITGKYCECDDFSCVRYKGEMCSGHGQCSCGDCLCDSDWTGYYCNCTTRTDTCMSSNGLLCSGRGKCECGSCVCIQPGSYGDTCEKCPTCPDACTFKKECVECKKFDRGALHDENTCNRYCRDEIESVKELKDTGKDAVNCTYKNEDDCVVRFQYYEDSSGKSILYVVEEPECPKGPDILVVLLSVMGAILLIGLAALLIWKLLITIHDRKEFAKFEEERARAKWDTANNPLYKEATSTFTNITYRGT
In the case of `CCCCCCCCOC(=O)N[C@@H](CNC(=O)c1ccc(OCCNC2=NCCN2)cc1O)C(=O)O` [Example 105, (2S)-3-({4-[2-(4,5-dihydro-1H-imidazol-2-ylamino)ethoxy]-2-hydroxybenzoyl}-amino)-2-{[(octyloxy)carbonyl]amino}propanoic acid], the IC50 is reported as 0.135 µM. In the case of `CCCCOC(=O)N[C@@H](CNC(=O)c1ccc(OCCNC2=NCCN2)cc1O)C(=O)O` [Example 106, (2S)-2-[(butoxycarbonyl)amino]-3-({4-[2-(4,5-dihydro-1H-imidazol-2-ylamino)ethoxy]-2-hydroxybenzoyl}amino)propanoic acid], the IC50 is reported as 0.114 µM. With `CC(C)COC(=O)N[C@@H](CNC(=O)c1ccc(OCCNC2=NCCN2)cc1O)C(=O)O` [Example 107, (2S)-3-({4-[2-(4,5-dihydro-1H-imidazol-2-ylamino)ethoxy]-2-hydroxybenzoyl}-amino)-2-[(isobutoxycarbonyl)amino]propanoic acid] the IC50 was 0.13 µM. For `CCCCNC(=O)N[C@@H](CNC(=O)c1ccc(OCCNC2=NCCN2)cc1O)C(=O)O` [Example 108, (2S)-2-{[(butylamino)carbonyl]amino}-3-({4-[2-(4,5-dihydro-1H-imidazol-2-ylamino)ethoxy]-2-hydroxybenzoyl}amino)propanoic acid], the IC50 was 1.1 µM. Compound `CCCCCCNC(=O)N[C@@H](CNC(=O)c1ccc(OCCNC2=NCCN2)cc1O)C(=O)O` [Example 109, (2S)-3-({4-[2-(4,5-dihydro-1H-imidazol-2-ylamino)ethoxy]-2-hydroxybenzoyl}-amino)-2-{[(hexylamino)carbonyl]amino}propanoic acid] has an IC50 of 0.251 µM. Work on `CCCCCCCCNC(=O)N[C@@H](CNC(=O)c1ccc(OCCNC2=NCCN2)cc1O)C(=O)O` [Example 110, (2S)-3-({4-[2-(4,5-dihydro-1H-imidazol-2-ylamino)ethoxy]-2-hydroxybenzoyl}-amino)-2-{[(octylamino)carbonyl]amino}propanoic acid] yielded an IC50 of 0.544 µM. Compound `C=CCNC(=O)N[C@@H](CNC(=O)c1ccc(OCCNC2=NCCN2)cc1O)C(=O)O` [Example 111, (2S)-2-{[(allylamino)carbonyl]amino}-3-({4-[2-(4,5-dihydro-1H-imidazol-2-ylamino)ethoxy]-2-hydroxybenzoyl}amino)propanoic acid] has an IC50 of 0.856 µM. For `O=C(NC1CCCCC1)N[C@@H](CNC(=O)c1ccc(OCCNC2=NCCN2)cc1O)C(=O)O` [Example 112, (2S)-2-{[(cyclohexylamino)carbonyl]amino}-3-({4-[2-(4,5-dihydro-1H-imidazol-2-ylamino)ethoxy]-2-hydroxybenzoyl}amino)propanoic acid], the IC50 was 1.09 µM. With `O=C(NCc1ccccc1)N[C@@H](CNC(=O)c1ccc(OCCNC2=NCCN2)cc1O)C(=O)O` [Example 113, (2S)-2-{[(benzylamino)carbonyl]amino}-3-({^4-[2-(4,5-dihydro-1H-imidazol-2-ylamino)ethoxy]-2-hydroxybenzoyl}amino)propanoic acid] the IC50 was 3.03 µM. `COc1ccccc1NC(=O)N[C@@H](CNC(=O)c1ccc(OCCNC2=NCCN2)cc1O)C(=O)O` [Example 115, (2S)-3-({4-[2-(4,5-dihydro-1H-imidazol-2-ylamino)ethoxy]-2-hydroxybenzoyl}-amino)-2-{[(2-methoxyanilino)carbonyl]amino}propanoic acid] gave an IC50 of 0.258 µM. For `O=C(Nc1ccccc1-c1ccccc1)N[C@@H](CNC(=O)c1ccc(OCCNC2=NCCN2)cc1O)C(=O)O` [Example 116, (2S)-2-{[([1,1′-biphenyl]-2-ylamino)carbonyl]amino}-3-({4-[2-(4,5-dihydro-1H-imidazol-2-ylamino)ethoxy]-2-hydroxybenzoyl}amino)propanoic acid], the IC50 was 2.76 µM. For `O=C(NCCc1ccccc1)N[C@@H](CNC(=O)c1ccc(OCCNC2=NCCN2)cc1O)C(=O)O` [Example 117, (2S)-3-({4-[2-(4,5-dihydro-1H-imidazol-2-ylamino)ethoxy]-2-hydroxybenzoyl}-amino)-2-({[(2-phenylethyl)amino]carbonyl}amino)propanoic acid], the IC50 was 1.52 µM. `CC(C)C(=O)N[C@@H](CNC(=O)c1ccc(OCCNC2=NCCN2)cc1O)C(=O)O` [Example 118, (2S)-3-({4-[2-(4,5-dihydro-1H-imidazol-2-ylamino)ethoxy]-2-hydroxybenzoyl}-amino)-2-(isobutyrylamino)propanoic acid] was tested, and the IC50 was > 1 µM. In the case of `CCCC(=O)N[C@@H](CNC(=O)c1ccc(OCCNC2=NCCN2)cc1O)C(=O)O` [Example 119, (2S)-2-(butyrylamino)-3-({4-[2-(4,5-dihydro-1H-imidazol-2-ylamino)ethoxy]-2-hydroxybenzoyl}amino)propanoic acid], the IC50 is reported as > 1 µM. `CCCCCC(=O)N[C@@H](CNC(=O)c1ccc(OCCNC2=NCCN2)cc1O)C(=O)O` [Example 120, (2S)-3-({4-[2-(4,5-dihydro-1H-imidazol-2-ylamino)ethoxy]-2-hydroxybenzoyl}-amino)-2-(hexanoylamino)propanoic acid] was tested, and the IC50 was > 1 µM. `CCCCC(=O)N[C@@H](CNC(=O)c1ccc(OCCNC2=NCCN2)cc1O)C(=O)O` [Example 121, (2S)-3-({4-[2-(4,5-dihydro-1H-imidazol-2-ylamino)ethoxy]-2-hydroxybenzoyl}-amino)-2-(pentanoylamino)propanoic acid] was tested, and the IC50 was > 1 µM. `CC(C)(C)CC(=O)N[C@@H](CNC(=O)c1ccc(OCCNC2=NCCN2)cc1O)C(=O)O` [Example 122, (2S)-3-({4-[2-(4,5-dihydro-1H-imidazol-2-ylamino)ethoxy]-2-hydroxybenzoyl}-amino)-2-[(3,3-dimethylbutanoyl)amino]propanoic acid] was tested, and the IC50 was > 1 µM. For `CC1(C)C(C(=O)N[C@@H](CNC(=O)c2ccc(OCCNC3=NCCN3)cc2O)C(=O)O)C1(C)C` [Example 123, (2S)-3-({4-[2-(4,5-dihydro-1H-imidazol-2-ylamino)ethoxy]-2-hydroxybenzoyl}-amino)-2-{[(2,2,3,3-tetramethylcyclopropyl)carbonyl]amino}propanoic acid], the IC50 was > 1 µM. With `O=C(CC12CC3CC(CC(C3)C1)C2)N[C@@H](CNC(=O)c1ccc(OCCNC2=NCCN2)cc1O)C(=O)O` [Example 124, (2S)-2-{[2-(1-adamantyl)acetyl]amino}-3-({4-[2-(4,5-dihydro-1H-imidazol-2-ylamino)ethoxy]-2-hydroxybenzoyl}amino)propanoic acid] the IC50 was 0.734 µM. `C#CCCC(=O)N[C@@H](CNC(=O)c1ccc(OCCNC2=NCCN2)cc1O)C(=O)O` [Example 125, (2S)-3-({4-[2-(4,5-dihydro-1H-imidazol-2-ylamino)ethoxy]-2-hydroxybenzoyl}-amino)-2-(pent-4-ynoylamino)propanoic acid] was tested, and the IC50 was > 1 µM. `O=C(NC[C@H](NC(=O)C1CCCCC1)C(=O)O)c1ccc(OCCNC2=NCCN2)cc1O` [Example 126, (2S)-2-[(cyclohexylcarbonyl)amino]-3-({4-[2-(4,5-dihydro-1H-imidazol-2-ylamino)ethoxy]-2-hydroxybenzoyl}amino)propanoic acid] was tested, and the IC50 was > 1 µM. Compound `O=C(Cc1ccccc1)N[C@@H](CNC(=O)c1ccc(OCCNC2=NCCN2)cc1O)C(=O)O` [Example 127, (2S)-3-({4-[2-(4,5-dihydro-1H-imidazol-2-ylamino)ethoxy]-2-hydroxybenzoyl}-amino)-2-[(2-phenylacetyl)amino]propanoic acid] has an IC50 of 0.955 µM. In the case of `O=C(CCc1ccccc1)N[C@@H](CNC(=O)c1ccc(OCCNC2=NCCN2)cc1O)C(=O)O` [Example 128, (2S)-3-({4-[2-(4,5-dihydro-1H-imidazol-2-ylamino)ethoxy]-2-hydroxybenzoyl}-amino)-2-[(3-phenylpropanoyl)amino]propanoic acid], the IC50 is reported as > 1 µM. Work on `O=C(CC1CCCCC1)N[C@@H](CNC(=O)c1ccc(OCCNC2=NCCN2)cc1O)C(=O)O` [Example 129, (2S)-2-[(2-cyclohexylacetyl)amino]-3-({4-[2-(4,5-dihydro-1H-imidazol-2-ylamino)ethoxy]-2-hydroxybenzoyl}amino)propanoic acid] yielded an IC50 of 0.635 µM. `O=C(/C=C/c1ccccc1)N[C@@H](CNC(=O)c1ccc(OCCNC2=NCCN2)cc1O)C(=O)O` [Example 130, (2S)-3-({4-[2-(4,5-dihydro-1H-imidazol-2-ylamino)ethoxy]-2-hydroxybenzoyl}-amino)-2-{[(E)-3-phenylprop-2-enoyl]amino}propanoic acid] was tested, and the IC50 was > 1 µM. `O=C(NC[C@H](NC(=O)c1ccccc1Cl)C(=O)O)c1ccc(OCCNC2=NCCN2)cc1O` [Example 131, (2S)-2-[(2-chlorobenzoyl)amino]-3-({4-[2-(4,5-dihydro-1H-imidazol-2-ylamino)ethoxy]-2-hydroxybenzoyl}amino)propanoic acid] gave an IC50 of 0.405 µM. For `Cc1ccccc1C(=O)N[C@@H](CNC(=O)c1ccc(OCCNC2=NCCN2)cc1O)C(=O)O` [Example 132, (2S)-3-({4-[2-(4,5-dihydro-1H-imidazol-2-ylamino)ethoxy]-2-hydroxybenzoyl}amino)-2-[(2-methylbenzoyl)amino]propanoic acid], the IC50 was 0.963 µM. With `COc1ccccc1C(=O)N[C@@H](CNC(=O)c1ccc(OCCNC2=NCCN2)cc1O)C(=O)O` [Example 133, (2S)-3-({4-[2-(4,5-dihydro-1H-imidazol-2-ylamino)ethoxy]-2-hydroxybenzoyl}-amino)-2-[(2-methoxybenzoyl)amino]propanoic acid] the IC50 was > 1 µM. In the case of `O=C(N[C@@H](CNC(=O)c1ccc(OCCNC2=NCCN2)cc1O)C(=O)O)c1ccc(Cl)cc1` [Example 134, (2S)-2-[(4-chlorobenzoyl)amino]-3-({4-[2-(4,5-dihydro-1H-imidazol-2-ylamino) -ethoxy]-2-hydroxybenzoyl}amino)propanoic acid], the IC50 is reported as > 1 µM. With `Cc1ccc(C(=O)N[C@@H](CNC(=O)c2ccc(OCCNC3=NCCN3)cc2O)C(=O)O)cc1` [Example 135, (2S)-3-({4-[2-(4,5-dihydro-1H-imidazol-2-ylamino)ethoxy]-2-hydroxybenzoyl}-amino)-2-[(4-methylbenzoyl)amino]propanoic acid] the IC50 was > 1 µM. With `COc1ccc(C(=O)N[C@@H](CNC(=O)c2ccc(OCCNC3=NCCN3)cc2O)C(=O)O)cc1` [Example 136, (2S)-3-({4-[2-(4,5-dihydro-1H-imidazol-2-ylamino)ethoxy]-2-hydroxybenzoyl}-amino)-2-[(4-methoxybenzoyl)amino]propanoic acid] the IC50 was > 1 µM.
